In ChEMBL document CHEMBL2440048 (J Med Chem, 2013):

Experiment: Inhibition of RyR2 R4496C mutant (unknown origin)-mediated store-overload induced calcium release expressed in HEK293 cells after 8 to 10 mins by fura-2/AM dye-based fluorescence assay
Format: cell-based
Settings: Homo sapiens

With `COc1ccccc1OCCNCC(O)COc1ccc2[nH]cnc2c1` (configuration not stated) the IC50 was > 1000 µM.

In the case of `COc1ccc2c(c1)N(C)CCCS2`, the IC50 is reported as > 1000 µM.
